Patent publication US20110166078A1, “OLIGOSACCHARIDE COMPOUNDS FOR USE IN MOBILISING STEM CELLS” (ENDOTIS PHARMA, priority 2008, published 2011)

Key:
[1] = tested on: PDGF-β-induced NHDF proliferation; assay: PDGF-β-induced NHDF proliferation assay; type: cell-based, human; conditions: PDGF-β 10 ng/ml; FIGS. 8-12
Protocol: (§1) The activities of the compounds of the present invention were tested using a proliferation assay, such as the one described by N. Ali et al., J Pharmacol Sci, 2005, 98, 130-141. A defined number of cells is seeded in each well of a culture plate. In order to stimulate cell proliferation, a growth factor is added in some wells, while others remain unstimulated (basal proliferation conditions). To monitor the effects of substances of interest (oligosaccharides compounds according to the present invention) on basal and growth factor-induced cell proliferation, substances of interest are added at different concentrations (i.e. 0.1, 0.3, 1, 3, 10 or 30 μM) in presence or absence of the growth factor, respectively. After an incubation period of 24 hours, the total number of cells is estimated in all samples (generally through an indirect method, such as incorporation of radioactivity into the newly synthesised DNA or colorimetric assays based on cellular enzyme activities or metabolite production). The total number of cells for the control sample in which no substance of interest nor growth factor have been added is set to 1. The total number of cells in all the other samples is compared to this value in order to obtain the relative proliferation index.
Typically, cells are seeded in 48 or 96-well plates. After 2 h (i.e. the time required for cells to adhere to the support) the normal culture media is replaced by a minimal essential culture media in which cells are grown for 24 h (starvation period). This step is used to reduce cell growth (cell metabolism is slowed down in order to better visualise the growth factor stimulation effect) before adding an angiogenic protein, such as a growth factor i.e. FGF-2 or PDGF-β. No growth factor is added in basal proliferation conditions (independently of the presence or absence of the oligosaccharide of the present invention). To evaluate the inhibition of the oligosaccharide compounds according to the present invention on cell proliferation, the angiogenic protein (growth factor) is added at a fixed concentration (from 5 ng/ml to 10 ng/ml) with increasing amounts of oligosaccharide compounds (0.1, 0.3, 1, 3, 10 or 30 μM), which allows the IC50 value to be estimated (i.e. the oligosaccharide concentration at which the stimulatory effect of the growth factor is inhibited by 50%).
(§2) Following addition of the angiogenic protein (growth factor) over a 24 h stimulation period, a commercial reagent containing a substrate for a cellular enzyme is added and incubated for couple of hours. The degradation of the substrate by the enzyme leads to the production of a coloured product which is titrated by absorbance measurement. […]

[2] = tested on: FGF-2-induced NHDF (Normal Human Dermal Fibroblast) cell proliferation; assay: FGF-2-induced NHDF proliferation assay; type: cell-based; conditions: compound 0.1 to 30 μM
Protocol: as §1
Typically, cells are seeded in 48 or 96-well plates. After 2 h (i.e. the time required for cells to adhere to the support) the normal culture media is replaced by a minimal essential culture media in which cells are grown for 24 h (starvation period). This step is used to reduce cell growth (cell metabolism is slowed down in order to better visualise the growth factor stimulation effect) before adding an angiogenic protein, such as a growth factor i.e. FGF-2 or PDGF-β. No growth factor is added in basal proliferation conditions (independently of the presence or absence of the oligosaccharide of the present invention). […]
as §2
In the following experiments the effects of compounds 240 and 241 (concentrations from 0.1 to 30 μM) were evaluated on FGF-2-induced NHDF (Normal Human Dermal Fibroblast) cell proliferation. […]

SMILES | inhibition of PDGF-β-induced NHDF proliferation [1] | inhibition of FGF-2-induced fibroblast proliferation ([2]; FGF-2 5 ng/ml, FIGS. 6-7) | basal NHDF proliferation ([2]; control conditions, no growth factor)
C#CCCCOC1OC(COS(=O)(=O)[O-])C(OC2OC(C(=O)[O-])C(OC3OC(COS(=O)(=O)[O-])C(OC4OC(C(=O)[O-])C(OCc5ccccc5)C(OCc5ccccc5)C4OS(=O)(=O)[O-])C(OCc4ccccc4)C3NS(=O)(=O)[O-])C(OCc3ccccc3)C2OS(=O)(=O)[O-])C(OCc2ccccc2)C1NS(=O)(=O)[O-].[Na+].[Na+].[Na+].[Na+].[Na+].[Na+].[Na+].[Na+] (stereo not shown) [Compound 237] | inhibit PDGF-β proliferation (starting in the micromolar range) |  | 
C#CCCCOC1OC(COS(=O)(=O)[O-])C(OC2OC(C(=O)[O-])C(OC3OC(COS(=O)(=O)[O-])C(OC4OC(C(=O)[O-])C(OC5OC(COS(=O)(=O)[O-])C(OC6OC(C(=O)[O-])C(OC7OC(COS(=O)(=O)[O-])C(OC8OC(C(=O)[O-])C(OC9OC(COS(=O)(=O)[O-])C(OC%10OC(C(=O)[O-])C(OCc%11ccccc%11)C(OCc%11ccccc%11)C%10OS(=O)(=O)[O-])C(OCc%10ccccc%10)C9NS(=O)(=O)[O-])C(OCc9ccccc9)C8OS(=O)(=O)[O-])C(OCc8ccccc8)C7NS(=O)(=O)[O-])C(OCc7ccccc7)C6OS(=O)(=O)[O-])C(OCc6ccccc6)C5NS(=O)(=O)[O-])C(OCc5ccccc5)C4OS(=O)(=O)[O-])C(OCc4ccccc4)C3NS(=O)(=O)[O-])C(OCc3ccccc3)C2OS(=O)(=O)[O-])C(OCc2ccccc2)C1NS(=O)(=O)[O-].[Na+].[Na+].[Na+].[Na+].[Na+].[Na+].[Na+].[Na+].[Na+].[Na+].[Na+].[Na+].[Na+].[Na+].[Na+].[Na+].[Na+].[Na+].[Na+].[Na+] (stereo not shown) [Compound 241] | inhibit PDGF-β proliferation (starting in the micromolar range) | inhibit FGF-2-induced fibroblast proliferation (starting in the micromolar range) | did not seem to be affected
